Measured values: patent US9808003B2, “Herbicidally active 2-(substituted-phenyl)-cyclopentane-1,3-dione compounds and derivatives thereof” (Syngenta Limited, priority 2013, dated 2017)

Assays:
Type in all cases: in vivo
[1] = system: Setaria viridis (SETVI); assay: Test 1B glasshouse assay, post-emergence herbicidal activity against grassy weeds; conditions: 14 DAA
How it was run: (§1)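 Herbicide applied post-emergence at rates such as 60 g/ha (±50 g/ha cloquintocet-mexyl) or 90 and 120 g/ha (with safener), rates varying per compound. Plants kept at 22/16 °C, watered twice daily; percentage phytotoxicity scored visually after 14 days.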

[2] = system: Poa annua (POAAN); assay: as above; conditions: 14 DAA
How it was run: as §1

[3] = system: Avena fatua (AVEFA); assay: as above; conditions: 14 DAA
How it was run: as §1

[4] = system: Alopecurus myosuroides (ALOMY); assay: as above; conditions: 14 DAA
How it was run: as §1

[5] = system: Lolium multiflorum (LOLMU); assay: as above; conditions: 14 DAA
How it was run: as §1

[6] = system: grassy monocotyledonous weeds; assay: Test 1B glasshouse assay, post-emergence, comparison of separated enantiomers, weeds overall; conditions: chiral-column-separated enantiomers, A98 vs A99 and A100 vs A101, Biological Example 1B
Experimental: Biological Example 1B tests the herbicidal activity of“technical” compounds (i.e. compounds not previously formulated before the test), as the herbicides under test.
An “instant formulation”, known as the “IF50”, containing 50 g/liter (i.e. 5% w/v) of the “technical” (i.e. unformulated) active ingredient (i.e. the herbicide under test), is prepared by dissolving the active ingredient in a mixture of organic solvents and emulsifier, details of which are provided in the Table below. […]
The test plants are then grown on under controlled conditions in the glasshouse (at 22/16° C., day/night; 16 hours light; 65% humidity) and are watered twice daily. 14 days after application of the test herbicide, the test is evaluated visually for percentage phytotoxicity to the plant (where 100%=total damage to plant; 0%=no damage to plant). […]
Herbicidal activity (phytotoxicity) is evaluated visually, and an assessed percentage phytotoxicity score is given for each herbicidal application on each plant species (with 100%=total damage to plant; 0%=no damage to plant; the assessment is recorded in increments of 1%). […]

[7] = system: Spring Barley “Harrington”; assay: Test 1B glasshouse assay, post-emergence herbicidal activity against cereal crops; conditions: 14 DAA
How it was run: (§2)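 Visual percentage damage (100% = total, 0% = none) read 14 days after application, averaged over two replicates. Plants grown 14 days at 22/16 °C day/night before post-emergence spraying of unformulated compound (IF50/acetone, 0.5% v/v Adigor). Rates usually 60–120 g/ha; cloquintocet-mexyl 50 g/ha co-applied where stated.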

[8] = system: Winter Barley “Suzuka”; assay: as above; conditions: 14 DAA
How it was run: as §2

[9] = system: Spring Wheat “Teal”; assay: as above; conditions: 14 DAA
How it was run: as §2

[10] = system: Winter Wheat “Hereward”; assay: as above; conditions: 14 DAA
How it was run: as §2

[11] = 60 g/ha herbicide, 0 g/ha cloquintocet-mexyl, test result no. 1 (T1)
[12] = 60 g/ha herbicide, 50 g/ha cloquintocet-mexyl, test result no. 1 (T1)
[13] = 60 g/ha herbicide, 50 g/ha cloquintocet-mexyl, test result no. 2 (T2)
[14] = 90 g/ha herbicide, 50 g/ha cloquintocet-mexyl, test result no. 2 (T2)
[15] = 120 g/ha herbicide, 50 g/ha cloquintocet-mexyl, test result no. 2 (T2)
[16] = 30 g/ha herbicide, 50 g/ha cloquintocet-mexyl
[17] = 45 g/ha herbicide, 50 g/ha cloquintocet-mexyl
[18] = 60 g/ha herbicide, 0 g/ha cloquintocet-mexyl
[19] = 60 g/ha herbicide, 50 g/ha cloquintocet-mexyl

In the case of Cc1cc(-n2cc(Cl)cn2)cc(C)c1C1C(=O)C[C@@H](CCNC(=O)c2ccccn2)C1=O (stereo partly drawn) [Compound A98, N-[2-[(1R)-3-[4-(4-chloropyrazol-1-yl)-2,6-dimethyl-phenyl]-2,4-dioxo-cyclopentyl]ethyl]pyridine-2-carboxamide], the “Post-emergence herbicidal activity, percentage phytotoxicity, SETVI” value [1, 11] is reported as 94 (T1) %, the “Post-emergence herbicidal activity, percentage phytotoxicity, SETVI” value [1, 12] is reported as 97 (T1); % and the “Post-emergence herbicidal activity, percentage phytotoxicity, SETVI” value [1, 13] is reported as 100 (T2) %. For the same compound, the “Post-emergence herbicidal activity, percentage phytotoxicity, SETVI” value [1, 14] was 100 (T2) %, the “Post-emergence herbicidal activity, percentage phytotoxicity, SETVI” value [1, 15] was 100 (T2) % and the “Post-emergence herbicidal activity, percentage phytotoxicity, POAAN” value [2, 11] was 78 (T1) %. The “Post-emergence herbicidal activity, percentage phytotoxicity, POAAN” value [2, 12] was 75 (T1); %, the “Post-emergence herbicidal activity, percentage phytotoxicity, POAAN” value [2, 13] was 75 (T2) % and the “Post-emergence herbicidal activity, percentage phytotoxicity, POAAN” value [2, 14] was 78 (T2) %. The “Post-emergence herbicidal activity, percentage phytotoxicity, POAAN” value [2, 15] was 83 (T2) %, the “Post-emergence herbicidal activity, percentage phytotoxicity, AVEFA” value [3, 11] was 100 (T1) % and the “Post-emergence herbicidal activity, percentage phytotoxicity, AVEFA” value [3, 12] was 100 (T1); %. For the same compound, the “Post-emergence herbicidal activity, percentage phytotoxicity, AVEFA” value [3, 13] was 100 (T2) %, the “Post-emergence herbicidal activity, percentage phytotoxicity, AVEFA” value [3, 14] was 100 (T2) % and the “Post-emergence herbicidal activity, percentage phytotoxicity, AVEFA” value [3, 15] was 100 (T2) %. The “Post-emergence herbicidal activity, percentage phytotoxicity, ALOMY” value [4, 11] was 80 (T1) %, the “Post-emergence herbicidal activity, percentage phytotoxicity, ALOMY” value [4, 12] was 80 (T1); % and the “Post-emergence herbicidal activity, percentage phytotoxicity, ALOMY” value [4, 13] was 78 (T2) %. The “Post-emergence herbicidal activity, percentage phytotoxicity, ALOMY” value [4, 14] was 88 (T2) %, the “Post-emergence herbicidal activity, percentage phytotoxicity, ALOMY” value [4, 15] was 97 (T2) % and the “Post-emergence herbicidal activity, percentage phytotoxicity, LOLMU” value [5, 11] was 95 (T1) %. For the same compound, the “Post-emergence herbicidal activity, percentage phytotoxicity, LOLMU” value [5, 12] was 95 (T1); %, the “Post-emergence herbicidal activity, percentage phytotoxicity, LOLMU” value [5, 13] was 100 (T2) % and the “Post-emergence herbicidal activity, percentage phytotoxicity, LOLMU” value [5, 14] was 100 (T2) %. The “Post-emergence herbicidal activity, percentage phytotoxicity, LOLMU” value [5, 15] was 100 (T2) %, the “herbicidal activity against grassy monocotyledonous weeds compared with the compound of opposite stereochemistry” value [6] was “more potent herbicidal activity” and the “Post-emergence herbicidal activity against cereal crops, percentage phytotoxicity, Spring Barley “Harrington”” value [7, 11] was 33 (T1) %. The “Post-emergence herbicidal activity against cereal crops, percentage phytotoxicity, Spring Barley “Harrington”” value [7, 12] was 10 (T1); %, the “Post-emergence herbicidal activity against cereal crops, percentage phytotoxicity, Spring Barley “Harrington”” value [7, 13] was 4 (T2) % and the “Post-emergence herbicidal activity against cereal crops, percentage phytotoxicity, Spring Barley “Harrington”” value [7, 14] was 5 (T2) %. The “Post-emergence herbicidal activity against cereal crops, percentage phytotoxicity, Spring Barley “Harrington”” value [7, 15] was 15 (T2) %, the “Post-emergence herbicidal activity against cereal crops, percentage phytotoxicity, Winter Barley “Suzuka”” value [8, 11] was 75 (T1) % and the “Post-emergence herbicidal activity against cereal crops, percentage phytotoxicity, Winter Barley “Suzuka”” value [8, 12] was 13 (T1); %. The “Post-emergence herbicidal activity against cereal crops, percentage phytotoxicity, Winter Barley “Suzuka”” value [8, 13] was 8 (T2) %, the “Post-emergence herbicidal activity against cereal crops, percentage phytotoxicity, Winter Barley “Suzuka”” value [8, 14] was 9 (T2) % and the “Post-emergence herbicidal activity against cereal crops, percentage phytotoxicity, Winter Barley “Suzuka”” value [8, 15] was 40 (T2) %. The “Post-emergence herbicidal activity against cereal crops, percentage phytotoxicity, Spring Wheat “Teal”” value [9, 11] was 30 (T1) %, the “Post-emergence herbicidal activity against cereal crops, percentage phytotoxicity, Spring Wheat “Teal”” value [9, 12] was 10 (T1); % and the “Post-emergence herbicidal activity against cereal crops, percentage phytotoxicity, Spring Wheat “Teal”” value [9, 13] was 5 (T2) %. For the same compound, the “Post-emergence herbicidal activity against cereal crops, percentage phytotoxicity, Spring Wheat “Teal”” value [9, 14] was 13 (T2) %, the “Post-emergence herbicidal activity against cereal crops, percentage phytotoxicity, Spring Wheat “Teal”” value [9, 15] was 20 (T2) % and the “Post-emergence herbicidal activity against cereal crops, percentage phytotoxicity, Winter Wheat “Hereward”” value [10, 11] was 35 (T1) %. For the same compound, the “Post-emergence herbicidal activity against cereal crops, percentage phytotoxicity, Winter Wheat “Hereward”” value [10, 12] was 13 (T1); %, the “Post-emergence herbicidal activity against cereal crops, percentage phytotoxicity, Winter Wheat “Hereward”” value [10, 13] was 9 (T2) % and the “Post-emergence herbicidal activity against cereal crops, percentage phytotoxicity, Winter Wheat “Hereward”” value [10, 14] was 13 (T2) %. The “Post-emergence herbicidal activity against cereal crops, percentage phytotoxicity, Winter Wheat “Hereward”” value [10, 15] was 23 (T2) %.
CCc1cc(-n2cc(Cl)cn2)cc(C)c1C1C(=O)C[C@@H](CCNC(=O)c2ccccn2)C1=O (some centres unmarked) [Compound A100] was tested, and the “Post-emergence herbicidal activity, percentage phytotoxicity, SETVI” value [1, 16] was 95%, the “Post-emergence herbicidal activity, percentage phytotoxicity, SETVI” value [1, 17] was 99% and the “Post-emergence herbicidal activity, percentage phytotoxicity, SETVI” value [1, 18] was 99%. The “Post-emergence herbicidal activity, percentage phytotoxicity, SETVI” value [1, 19] was 99%, the “Post-emergence herbicidal activity, percentage phytotoxicity, POAAN” value [2, 16] was 73% and the “Post-emergence herbicidal activity, percentage phytotoxicity, POAAN” value [2, 17] was 78%. The “Post-emergence herbicidal activity, percentage phytotoxicity, POAAN” value [2, 18] was 80%, the “Post-emergence herbicidal activity, percentage phytotoxicity, POAAN” value [2, 19] was 78% and the “Post-emergence herbicidal activity, percentage phytotoxicity, AVEFA” value [3, 16] was 100%. For the same compound, the “Post-emergence herbicidal activity, percentage phytotoxicity, AVEFA” value [3, 17] was 100%, the “Post-emergence herbicidal activity, percentage phytotoxicity, AVEFA” value [3, 18] was 100% and the “Post-emergence herbicidal activity, percentage phytotoxicity, AVEFA” value [3, 19] was 100%. For the same compound, the “Post-emergence herbicidal activity, percentage phytotoxicity, ALOMY” value [4, 16] was 55%, the “Post-emergence herbicidal activity, percentage phytotoxicity, ALOMY” value [4, 17] was 75% and the “Post-emergence herbicidal activity, percentage phytotoxicity, ALOMY” value [4, 18] was 83%. The “Post-emergence herbicidal activity, percentage phytotoxicity, ALOMY” value [4, 19] was 78%, the “Post-emergence herbicidal activity, percentage phytotoxicity, LOLMU” value [5, 16] was 100% and the “Post-emergence herbicidal activity, percentage phytotoxicity, LOLMU” value [5, 17] was 100%. The “Post-emergence herbicidal activity, percentage phytotoxicity, LOLMU” value [5, 18] was 100%, the “Post-emergence herbicidal activity, percentage phytotoxicity, LOLMU” value [5, 19] was 100% and the “herbicidal activity against grassy monocotyledonous weeds compared with the compound of opposite stereochemistry” value [6] was “more potent herbicidal activity”. The “Post-emergence herbicidal activity against cereal crops, percentage phytotoxicity, Spring Barley “Harrington”” value [7, 16] was 13%, the “Post-emergence herbicidal activity against cereal crops, percentage phytotoxicity, Spring Barley “Harrington”” value [7, 17] was 18% and the “Post-emergence herbicidal activity against cereal crops, percentage phytotoxicity, Spring Barley “Harrington”” value [7, 18] was 83%. For the same compound, the “Post-emergence herbicidal activity against cereal crops, percentage phytotoxicity, Spring Barley “Harrington”” value [7, 19] was 28%, the “Post-emergence herbicidal activity against cereal crops, percentage phytotoxicity, Winter Barley “Suzuka”” value [8, 16] was 10% and the “Post-emergence herbicidal activity against cereal crops, percentage phytotoxicity, Winter Barley “Suzuka”” value [8, 17] was 30%. The “Post-emergence herbicidal activity against cereal crops, percentage phytotoxicity, Winter Barley “Suzuka”” value [8, 18] was 93%, the “Post-emergence herbicidal activity against cereal crops, percentage phytotoxicity, Winter Barley “Suzuka”” value [8, 19] was 53% and the “Post-emergence herbicidal activity against cereal crops, percentage phytotoxicity, Spring Wheat “Teal”” value [9, 16] was 20%. The “Post-emergence herbicidal activity against cereal crops, percentage phytotoxicity, Spring Wheat “Teal”” value [9, 17] was 30%, the “Post-emergence herbicidal activity against cereal crops, percentage phytotoxicity, Spring Wheat “Teal”” value [9, 18] was 65% and the “Post-emergence herbicidal activity against cereal crops, percentage phytotoxicity, Spring Wheat “Teal”” value [9, 19] was 45%. For the same compound, the “Post-emergence herbicidal activity against cereal crops, percentage phytotoxicity, Winter Wheat “Hereward”” value [10, 16] was 15%, the “Post-emergence herbicidal activity against cereal crops, percentage phytotoxicity, Winter Wheat “Hereward”” value [10, 17] was 30% and the “Post-emergence herbicidal activity against cereal crops, percentage phytotoxicity, Winter Wheat “Hereward”” value [10, 18] was 60%. For the same compound, the “Post-emergence herbicidal activity against cereal crops, percentage phytotoxicity, Winter Wheat “Hereward”” value [10, 19] was 40%.
